{
  "source": "patent US20120258980A1",
  "about": "“Antibacterial Agent for Drug-Resistant Bacteria, Method for Screening for Same, and Use of Same” (priority 2009, published 2012)",
  "key": {"[1]": {"test_system": "methicillin-susceptible S. aureus (MSSA), MRSA and mutants thereof", "assay": "MIC measurement, Test Example 3 (MSSA, MRSA and sequential gyrA/grlA quinolone-resistant mutants)", "format": "cell-based, Staphylococcus aureus", "conditions": "Staphylococcus aureus", "description": "That is, the first-step quinolone-resistant mutants are bacterial strains which are the same as their parent strains (clinical isolates) except that the genes shown in the corresponding parts of Table 1-1 are mutated. The second-step quinolone-resistant mutants are bacterial strains which are the same as the first-step quinolone-resistant mutants except that the genes shown in the corresponding parts of Table 1-1 are further mutated. The third-step quinolone-resistant mutants are bacterial strains which are the same as the second-step quinolone-resistant mutants except that the genes shown in the corresponding parts of Table 1-1 are further mutated. The fourth-step quinolone-resistant strain is a bacterial strain which is the same as the third-step quinolone-resistant mutant bacteria except that the gene shown in the corresponding part of Table 1-1 is further mutated.\n(§1) Each of the bacterial strains listed in Table 1-1 was shake-cultured at 37° C. overnight in 4 mL of a medium (Tryptical Soy Broth: TSB, product of Becton Dickinson and Company). FDA209P was used as a control.\n(§2) After completion of culturing, the resultant culture was suspended in a cation-adjusted Mueller Hinton Broth (CAMHB, product of Becton Dickinson and Company). Then, the obtained bacterial culture was adjusted in absorbance with the CAMHB so that the absorbance at 578 nm of the bacterial culture was adjusted to 0.3 measured by an absorption spectrometer. In addition, the resultant bacterial culture was 500-fold diluted with the CAMHB.\n(§3) Each of the 500-fold diluted, pre-cultured bacterial cultures was added at 50 μL/well to the CAMHB containing the quinolones and the nybomycins at various concentrations (50 μL/well), followed by statically culturing at 37° C. overnight.\n(§4) After completion of culturing, the growth of the bacteria was visually determined based on turbidity to measure MIC in each bacterial strain."}, "[2]": {"test_system": "MRSA, CA-MRSA and MSSA of Staphylococcus aureus", "assay": "MIC measurement, Test Example 4 (MRSA, CA-MRSA and MSSA strains)", "format": "cell-based", "conditions": "Staphylococcus aureus", "method_in_brief": "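S. aureus strains (FDA209P control) grown overnight in TSB at 37° C, resuspended in CAMHB, adjusted to A578 0.3 and diluted 500-fold. Equal volume added to CAMHB with serial compound concentrations, incubated statically overnight at 37° C. MIC read visually as lowest concentration without turbidity.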"}, "VRSA clinical isolates": {"test_system": "VRSA clinical isolates", "assay": "microbe, parasite or virus in culture", "format": "cell-based", "conditions": "Staphylococcus aureus", "experimental": "as §1, §2, §3, §4\nHere, the glycopeptides used were VCM and TEIC. The β-lactam used was OXA."}, "Enterococcus faecalis": {"test_system": "Enterococcus faecalis", "assay": "MIC measurement, Test Example 6 (enterococcus)", "format": "cell-based", "conditions": "Enterococcus faecalis, read-out: MIC", "experimental": "as §1, §2, §3, §4\nQuinolones and nybomycins were evaluated for antibacterial activity against Enterococcus faecalis shown in Table 6, wherein the other strains than NCTC12201 and NCTC12203 were subdivided from Shionogi & Co., Ltd (note that these strains are available also from the Department of Bacteriology, Juntendo University). The NCTC strains are both vancomycin-resistant E. faecalis and available from the National Collection of Type Cultures (NCTC)."}},
  "note": "Where two headings read alike, the source gives them in different places.",
  "data": [
    {"molecule": "CCn1cc(C(=O)O)c(=O)c2cc(F)c(N3CCNCC3)cc21", "note": "[NFLX, norfloxacin]", "values": [
      {"measurement": "MIC", "setting": "[1]; MR5867-2, second-step mutant, further gyrA S84L", "value": 64, "unit": "µg/mL"},
      {"measurement": "MIC", "setting": "[1]; MR5867-3, third-step mutant, further grlA S80F", "value": "> 128", "unit": "µg/mL"},
      {"measurement": "MIC", "setting": "[1]; MR5867-4, fourth-step mutant, further gyrA E88K", "value": "> 128", "unit": "µg/mL"},
      {"measurement": "MIC", "setting": "[2]; ATCC 29213 / MRSA / MSSA, ATCC 29213, MSSA", "value": 1, "unit": "µg/mL"},
      {"measurement": "MIC", "setting": "[2]; COL, MRSA", "value": 1, "unit": "µg/mL"},
      {"measurement": "MIC", "setting": "[2]; FDA209P / MRSA / MSSA, FDA209P, MSSA", "value": 0.25, "unit": "µg/mL"},
      {"measurement": "MIC", "setting": "[2]; ISA12-1, MRSA", "value": 1, "unit": "µg/mL"},
      {"measurement": "MIC", "setting": "[2]; ISA12-2, MRSA", "value": 1, "unit": "µg/mL"},
      {"measurement": "MIC", "setting": "[2]; ISA35-1, MRSA", "value": 16, "unit": "µg/mL"},
      {"measurement": "MIC", "setting": "[2]; ISA37-1, MSSA", "value": 1, "unit": "µg/mL"},
      {"measurement": "MIC", "setting": "[2]; ISA49-1, MSSA", "value": 1, "unit": "µg/mL"},
      {"measurement": "MIC", "setting": "[2]; ISA51-1, MSSA", "value": 0.5, "unit": "µg/mL"},
      {"measurement": "MIC", "setting": "[2]; ISA56-3, MRSA", "value": 0.25, "unit": "µg/mL"},
      {"measurement": "MIC", "setting": "[2]; ISA58-1, MRSA", "value": 1, "unit": "µg/mL"},
      {"measurement": "MIC", "setting": "[2]; ISA62-1, MRSA", "value": 1, "unit": "µg/mL"},
      {"measurement": "MIC", "setting": "[2]; ISA73-1, MSSA", "value": 1, "unit": "µg/mL"},
      {"measurement": "MIC", "setting": "[2]; KBSA32, MRSA", "value": 0.5, "unit": "µg/mL"},
      {"measurement": "MIC", "setting": "[2]; KBSA34, MRSA", "value": 1, "unit": "µg/mL"},
      {"measurement": "MIC", "setting": "[2]; KBSA72, MRSA", "value": "> 128", "unit": "µg/mL"},
      {"measurement": "MIC", "setting": "[2]; KBSA96, MRSA", "value": 128, "unit": "µg/mL"},
      {"measurement": "MIC", "setting": "[2]; KBSA171, MRSA", "value": "> 128", "unit": "µg/mL"},
      {"measurement": "MIC", "setting": "[2]; KSA24, MRSA", "value": 128, "unit": "µg/mL"},
      {"measurement": "MIC", "setting": "[2]; KSA31, MRSA", "value": 32, "unit": "µg/mL"},
      {"measurement": "MIC", "setting": "[2]; KSA36, MRSA", "value": "> 128", "unit": "µg/mL"},
      {"measurement": "MIC", "setting": "[2]; MRSA / MSSA / NCTC 8325, NCTC 8325, MSSA", "value": 1, "unit": "µg/mL"},
      {"measurement": "MIC", "setting": "[2]; MRSA / MSSA / USA300, USA300 FPR3757, CA-MRSA", "value": 32, "unit": "µg/mL"},
      {"measurement": "MIC", "setting": "[2]; MW2, CA-MRSA", "value": 0.5, "unit": "µg/mL"},
      {"measurement": "MIC", "setting": "[2]; N315, MRSA", "value": 1, "unit": "µg/mL"},
      {"measurement": "MIC", "setting": "VRSA clinical isolates; VRS1, VRSA, Michigan", "value": "> 128", "unit": "µg/mL"},
      {"measurement": "MIC", "setting": "VRSA clinical isolates; VRS2, VRSA, Pennsylvania", "value": "> 128", "unit": "µg/mL"},
      {"measurement": "MIC", "setting": "VRSA clinical isolates; VRS3, VRSA, New York", "value": 128, "unit": "µg/mL"},
      {"measurement": "MIC", "setting": "VRSA clinical isolates; VRS4, VRSA, New York", "value": 128, "unit": "µg/mL"},
      {"measurement": "MIC", "setting": "VRSA clinical isolates; VRS5, VRSA, Michigan", "value": "> 128", "unit": "µg/mL"},
      {"measurement": "MIC", "setting": "VRSA clinical isolates; VRS6, VRSA, Michigan", "value": "> 128", "unit": "µg/mL"},
      {"measurement": "MIC", "setting": "VRSA clinical isolates; VRS7, VRSA, Michigan", "value": "> 128", "unit": "µg/mL"},
      {"measurement": "MIC", "setting": "Enterococcus faecalis; E. faecalis 36-15672, quinolone-susceptible enterococci", "value": 4, "unit": "µg/mL"},
      {"measurement": "MIC", "setting": "Enterococcus faecalis; E. faecalis 36-15673, quinolone-susceptible enterococci", "value": 4, "unit": "µg/mL"},
      {"measurement": "MIC", "setting": "Enterococcus faecalis; E. faecalis 36-15678, quinolone-susceptible enterococci", "value": 4, "unit": "µg/mL"},
      {"measurement": "MIC", "setting": "Enterococcus faecalis; E. faecalis 36-15686, quinolone-resistant enterococci", "value": "> 128", "unit": "µg/mL"},
      {"measurement": "MIC", "setting": "Enterococcus faecalis; E. faecalis 36-15688, quinolone-susceptible enterococci", "value": 2, "unit": "µg/mL"},
      {"measurement": "MIC", "setting": "Enterococcus faecalis; E. faecalis 36-15694, quinolone-resistant enterococci", "value": "> 128", "unit": "µg/mL"},
      {"measurement": "MIC", "setting": "Enterococcus faecalis; E. faecalis 36-15696, quinolone-susceptible enterococci", "value": 4, "unit": "µg/mL"},
      {"measurement": "MIC", "setting": "Enterococcus faecalis; E. faecalis 36-15703, quinolone-resistant enterococci", "value": 64, "unit": "µg/mL"},
      {"measurement": "MIC", "setting": "Enterococcus faecalis; E. faecalis 36-15716, quinolone-resistant enterococci", "value": "> 128", "unit": "µg/mL"},
      {"measurement": "MIC", "setting": "Enterococcus faecalis; E. faecalis 36-15718, quinolone-susceptible enterococci", "value": 4, "unit": "µg/mL"},
      {"measurement": "MIC", "setting": "Enterococcus faecalis; E. faecalis 36-15720, quinolone-susceptible enterococci", "value": 8, "unit": "µg/mL"},
      {"measurement": "MIC", "setting": "Enterococcus faecalis; E. faecalis 36-15722, quinolone-resistant enterococci", "value": 128, "unit": "µg/mL"},
      {"measurement": "MIC", "setting": "Enterococcus faecalis; E. faecalis 36-15726, quinolone-resistant enterococci", "value": 128, "unit": "µg/mL"},
      {"measurement": "MIC", "setting": "Enterococcus faecalis; E. faecalis 36-15730, quinolone-susceptible enterococci", "value": 8, "unit": "µg/mL"},
      {"measurement": "MIC", "setting": "Enterococcus faecalis; E. faecalis 36-15736, quinolone-susceptible enterococci", "value": 4, "unit": "µg/mL"},
      {"measurement": "MIC", "setting": "Enterococcus faecalis; E. faecalis 36-15741, quinolone-susceptible enterococci", "value": 4, "unit": "µg/mL"},
      {"measurement": "MIC", "setting": "Enterococcus faecalis; NCTC 12201 / VRE, E. faecalis NCTC12201, vancomycin-resistant (VRE), quinolone-susceptible enterococci", "value": 2, "unit": "µg/mL"},
      {"measurement": "MIC", "setting": "Enterococcus faecalis; NCTC 12203 / VRE, E. faecalis NCTC12203, vancomycin-resistant (VRE), quinolone-susceptible enterococci", "value": 2, "unit": "µg/mL"}
    ]}
  ]
}
